Assay results: ChEMBL document CHEMBL1212738, “Phenotypic and genotypic characterization of Enterobacteriaceae with decreased susceptibility to carbapenems: results from large hospital-based surveillance studies in China” (2010)
≈ marks a conversion by molar mass, not a printed value.

How the values were obtained:
[1] = test system: Escherichia coli; experiment: Antimicrobial activity against Escherichia coli ZJ87 expressing KPC-2, TEM-1, ompC by CLSI method; format: functional
[2] = test system: Klebsiella pneumoniae; experiment: Antimicrobial activity against Klebsiella pneumoniae ZJ70T expressing KPC-2 by CLSI method; format: functional
[3] = test system: Escherichia coli; experiment: Antimicrobial activity against carbapenem-resistant Escherichia coli PU101 deficient in TEM-1, CTX-M-14, CMY-2, ompC by CLSI method; format: functional
[4] = test system: Klebsiella aerogenes; experiment: Antimicrobial activity against carbapenem-resistant Enterobacter aerogenes PU41 deficient in CTX-M-14, DHA-1, qnrS1, ompC DEc, ompF by CLSI method; format: functional
[5] = test system: Escherichia coli; experiment: Antimicrobial activity against Escherichia coli C600 transconjugant GZ66T expressing SHV-11, DHA-1 by CLSI method
[6] = test system: Klebsiella pneumoniae; experiment: Antimicrobial activity against carbapenem-resistant Klebsiella pneumoniae PU8 deficient in SHV-11, DHA-1, aac(6')-Ib-cr, ompK35/36 by CLSI method; format: functional
[7] = test system: Klebsiella pneumoniae; experiment: Antimicrobial activity against carbapenem-resistant Klebsiella pneumoniae PU5 deficient in SHV-12, DHA-1, aac(6')-Ib-cr, ompK35/36 by CLSI method; format: functional
[8] = test system: Citrobacter freundii; experiment: Antimicrobial activity against Citrobacter freundii RJ78 expressing CMY-2, qnrA1, aac(6')-Ib-cr, ompC by CLSI method; format: functional
[9] = test system: Escherichia coli; experiment: Antimicrobial activity against Escherichia coli PU102T expressing TEM-1, CTX-M-14, CMY-2 by CLSI method; format: functional
[10] = test system: Klebsiella aerogenes; experiment: Antimicrobial activity against Enterobacter aerogenes PU41T expressing CTX-M-14, DHA-1, qnrS1 by CLSI method; format: functional
[11] = test system: Klebsiella pneumoniae; experiment: Antimicrobial activity against carbapenem-resistant Klebsiella pneumoniae GZ83 deficient in SHV-11, CTX-M-14, ompK35/36 by CLSI method; format: functional
[12] = test system: Escherichia coli; experiment: Antimicrobial activity against Escherichia coli HX74T expressing CTX-M-3 by CLSI method; format: functional
[13] = test system: Enterobacter cloacae; experiment: Antimicrobial activity against carbapenem-resistant Enterobacter cloacae GX56 deficient in ompC and expressing low levels of ompF DE by CLSI method; format: functional
[14] = test system: Klebsiella pneumoniae; experiment: Antimicrobial activity against Klebsiella pneumoniae GZ64T expressing IMP-4 by CLSI method; format: functional
[15] = test system: Escherichia coli; experiment: Antimicrobial activity against carbapenem-resistant Escherichia coli HX74 deficient in TEM-1, CTX-M-14, CTX-M-3, aac(6')-Ibcr, ompC/F by CLSI method; format: functional
[16] = test system: Klebsiella pneumoniae; experiment: Antimicrobial activity against carbapenem-resistant Klebsiella pneumoniae PU104 deficient in TEM-1, SHV-11, CTX-M-15, qnrS1, ompK35/36 by CLSI method; format: functional
[17] = test system: Klebsiella pneumoniae; experiment: Antimicrobial activity against carbapenem-resistant Klebsiella pneumoniae CY1 deficient in SHV-11, DHA-1, ompK35/36 by CLSI method; format: functional
[18] = test system: Enterobacter cloacae; experiment: Antimicrobial activity against carbapenem-resistant Enterobacter cloacae WH103 deficient in IMP-4, TEM-1, CTX-M-3, qnrS1, ompC by CLSI method; format: functional
[19] = test system: Escherichia coli; experiment: Antimicrobial activity against Escherichia coli C600 transconjugant SZ62T expressing IMP-4, qnrS1by CLSI method
[20] = test system: Klebsiella pneumoniae; experiment: Antimicrobial activity against carbapenem-resistant Klebsiella pneumoniae PU4 deficient in SHV-1, DHA-1, ompK35/36 by CLSI method; format: functional
[21] = test system: Klebsiella pneumoniae; experiment: Antimicrobial activity against carbapenem-resistant Klebsiella pneumoniae PU105 deficient TEM-1, SHV-12, CTX-M-14, DHA-1, qnrB10/B4-like, aac(6')-Ib-cr, ompK35/36 by CLSI method; format: functional
[22] = test system: Enterobacter cloacae; experiment: Antimicrobial activity against carbapenem-resistant Enterobacter cloacae GX24 deficient in TEM-1, DHA-1, aac(6')-Ib, ompC by CLSI method; format: functional
[23] = test system: Enterobacter cloacae; experiment: Antimicrobial activity against carbapenem-resistant Enterobacter cloacae SZ92 deficient in IMP-4, TEM-1, CTX-M-14, DHA-1, qnrB10/B4-like, aac(6')-Ib, ompC by CLSI method; format: functional
[24] = test system: Klebsiella aerogenes; experiment: Antimicrobial activity against carbapenem-resistant Enterobacter aerogenes WH85 deficient in TEM-1, CTX-M-3, ompC/F by CLSI method; format: functional
[25] = test system: Klebsiella pneumoniae; experiment: Antimicrobial activity against carbapenem-resistant Klebsiella pneumoniae FZ47 deficient in IMP-8, TEM-1, SHV-11, CTX-M-14, qnrB2, aac(6')-Ib, ompK35/36 by CLSI method; format: functional
[26] = test system: Escherichia coli; experiment: Antimicrobial activity against carbapenem-resistant Escherichia coli ZJ86 expressing KPC-2, TEM-1 with ompC loss by CLSI method
[27] = test system: Enterobacter cloacae; experiment: Antimicrobial activity against carbapenem-resistant Enterobacter cloacae NJ89 deficient in CTX-M-14, ompC/F by CLSI method; format: functional
[28] = test system: Klebsiella pneumoniae; experiment: Antimicrobial activity against Klebsiella pneumoniae WH77 expressing IMP-4, TEM-1, SHV-14, CTX-M-3, qnrS1 by CLSI method; format: functional
[29] = test system: Klebsiella pneumoniae; experiment: Antimicrobial activity against Klebsiella pneumoniae ZJ99 expressing KPC-2, CTX-M-3, qnrS1, ompK35 DE by CLSI method; format: functional
[30] = test system: Klebsiella pneumoniae; experiment: Antimicrobial activity against carbapenem-resistant Klebsiella pneumoniae FZ49 deficient in IMP-8, TEM-1, SHV-11, CTX-M-14, qnrB2, aac(6')-Ib, ompK35/36 by CLSI method; format: functional
[31] = test system: Escherichia coli; experiment: Antimicrobial activity against Escherichia coli C600 transconjugant WH77T expressing IMP-4, TEM-1, CTX-M-3, qnrS1 by CLSI method
[32] = test system: Klebsiella pneumoniae; experiment: Antimicrobial activity against carbapenem-resistant Klebsiella pneumoniae ZJ18 deficient in KPC-2, SHV-28, DHA-1, ompK35 by CLSI method; format: functional
[33] = test system: Escherichia coli; experiment: Antimicrobial activity against Escherichia coli C600 by CLSI method; format: functional
[34] = test system: Klebsiella pneumoniae; experiment: Antimicrobial activity against Klebsiella pneumoniae ZJ68T expressing CTX-M-15 by CLSI method; format: functional
[35] = test system: Klebsiella pneumoniae; experiment: Antimicrobial activity against carbapenem-resistant Klebsiella pneumoniae ZJ71 deficient in KPC-2, TEM-1, SHV-11, CTX-M-14, ompK35 by CLSI method; format: functional
[36] = test system: Citrobacter freundii; experiment: Antimicrobial activity against Citrobacter freundii SZ62 expressing IMP-4, TEM-1, CMY-2, qnrS1, aac(6')-Ib-cr by CLSI method; format: functional
[37] = test system: Klebsiella pneumoniae; experiment: Antimicrobial activity against Klebsiella pneumoniae ZJ18T expressing KPC-2, DHA-1 by CLSI method; format: functional
[38] = test system: Klebsiella pneumoniae; experiment: Antimicrobial activity against carbapenem-resistant Klebsiella pneumoniae ZJ68 deficient in CTX-M-15, ompK35/36 by CLSI method
[39] = test system: Escherichia coli; experiment: Antimicrobial activity against Escherichia coli ZJ86T expressing KPC-2 by CLSI method; format: functional
[40] = test system: Klebsiella pneumoniae; experiment: Antimicrobial activity against Klebsiella pneumoniae ZJ71T expressing KPC-2 by CLSI method; format: functional

For `CO[C@@]1(NC(=O)Cc2cccs2)C(=O)N2C(C(=O)O)=C(COC(N)=O)CS[C@@H]21` [CEFOXITIN], the MIC [1] was 64 µg/mL (≈ 150 µM), the MIC [2] was 32 µg/mL (≈ 74.9 µM) and the MIC [3] was greater than 256 µg/mL. The MIC [4] was greater than 256 µg/mL, the MIC [5] was 128 µg/mL (≈ 299 µM) and the MIC [6] was greater than 256 µg/mL. The MIC [7] was greater than 256 µg/mL, the MIC [8] was greater than 256 µg/mL and the MIC [9] was greater than 256 µg/mL. It also gave an MIC [10] of 256 µg/mL (≈ 599 µM), an MIC [11] greater than 256 µg/mL and an MIC [12] of 16 µg/mL (≈ 37.4 µM). The MIC [13] was greater than 256 µg/mL, the MIC [14] was 256 µg/mL (≈ 599 µM) and the MIC [15] was 64 µg/mL (≈ 150 µM). It also gave an MIC [16] of 256 µg/mL (≈ 599 µM), an MIC [17] greater than 256 µg/mL and an MIC [18] greater than 256 µg/mL. It also gave an MIC [19] greater than 256 µg/mL, an MIC [20] greater than 256 µg/mL and an MIC [21] greater than 256 µg/mL. It also gave an MIC [22] greater than 256 µg/mL, an MIC [23] greater than 256 µg/mL and an MIC [24] of 256 µg/mL (≈ 599 µM). The MIC [25] was greater than 256 µg/mL, the MIC [26] was 64 µg/mL (≈ 150 µM) and the MIC [27] was greater than 256 µg/mL. For the same compound, the MIC [28] was greater than 256 µg/mL, the MIC [29] was 32 µg/mL (≈ 74.9 µM) and the MIC [30] was greater than 256 µg/mL. For the same compound, the MIC [31] was greater than 256 µg/mL, the MIC [32] was greater than 256 µg/mL and the MIC [33] was 16 µg/mL (≈ 37.4 µM). For the same compound, the MIC [34] was 16 µg/mL (≈ 37.4 µM), the MIC [35] was 16 µg/mL (≈ 37.4 µM) and the MIC [36] was greater than 256 µg/mL. The MIC [37] was 128 µg/mL (≈ 299 µM), the MIC [38] was 32 µg/mL (≈ 74.9 µM) and the MIC [39] was 64 µg/mL (≈ 150 µM). The MIC [40] was 32 µg/mL (≈ 74.9 µM).
